Data set [1] deals with indomethacin induced gastric damage in the rat. The data set is described as follows: Anti-ulcer activity: inhibition of indomethacin induced gastric damage. The format is in vivo. The note with it: po, 5 h, Table 2, 100 mg/kg orally, 30 min prior to and 2 h after indomethacin 15 mg/kg s.c. The method, then:
This was assessed by the inhibition of indomethacin induced gastric damage in the rat according to the method of Elegbe (Israeli J. Med. Sci. 10, 1451 (1974)).
Rats were starved overnight, given indomethacin subcutaneously (15 mg/kg) and sacrificed 5 hours later. Stomachs were inflated with 0.9% saline, cut along the greater curvature, pinned out and scored for gastric damage by the following system:
Score 1-3 according to the degree of erythema and slight haemorrhage.
Score 4-6 according to the degree of mucosal erosion.
Score 7-9 according to the depth of gastric damage. Groups of 7 rats were used for each treatment level of the compound under test and a similar group receiving vehicle only was set up on each occasion of testing. Compound or vehicle was administered orally 30 minutes prior to, and at 2 hours after, dosing with indomethacin. Mean values per treatment were obtained using the above scoring system and the Mann Witney test applied for significance between such values. The mean inhibition of gastric damage from a number of experiments is shown in the following Table 2; the dosage being 100 mg/kg orally.

The test system of data set [2] is Gastric Secretion, in the Pyloric Ligated Rat. Description: Effects on gastric secretion in the pyloric ligated rat (Shay method). It is filed as in vivo. The note with it: intraduodenal, Table 1, 100 mg/kg i.d., 3 hours, mean of a number of experiments vs vehicle control. The procedure: 1. Effects on Gastric Secretion, in the Pyloric Ligated Rat.
The method as described by Shay et al. (Gastroenterol. 26, 906 (1945)) was used. After overnight starvation, the pylorus was ligated under halothane anaesthesia, and the compound under test or vehicle only administered intraduodenally and the rats allowed to recover. They were sacrificed three hours later and the gastric juice removed. After measurement of the volume of secretion, its hydrogen ion concentration [H^+ ] was determined by titration with 0.05 n NaOH to pH 7. Groups of 4-6 animals were used for each treatment and the inhibitory effects of the compound were ascertained by comparison of the mean values obtained with those from a simultaneously set up control group of animals which received vehicle only. Students `t` test was applied for significance between groups. The mean values for % inhibition obtained for a number of experiments are shown in the following Table 1, the dosage being 100 mg/kg i.d.

For data set [3] the following is noted: J. Pharm. Sci. 58, 138-141 (1969); cited from earlier work.
The subject of data set [4] is indomethacin induced gastric damage in the rat. The data set is described as follows: Anti-ulcer activity: inhibition of indomethacin induced gastric damage. The format is in vivo. The settings on record: po, 5 h, Table 2, *50 mg/kg orally, 30 min prior to and 2 h after indomethacin 15 mg/kg s.c.
The conditions of data set [5]: Farmaco, Ed. Sci. 19, 668-702 (1964); cited from earlier work.
The mark [6] stands for this setting: read-out: % Inhibition, Volume (of gastric secretion).
[7] abbreviates: read-out: % Inhibition, [H^+ ] (hydrogen ion concentration of gastric juice).

Counter-ions that a name gives are not always drawn. Like-named read-outs stand apart in the source and are kept apart here.

For `C=CCON=C(c1ccccc1)c1cnccn1` [Compound 25, phenyl pyrazinyl ketone, O-allyl oxime], the inhibition in vivo at 100 mg/kg in data set [1] is 56%; in data set [2] (setting [6]), 87%; in data set [2] (setting [7]) it was 27%.

In the case of “phenyl 2-pyridinyl ketone, O-di(m)ethylaminoethyl oxime”, in data set [3], the anti-androgenic activity entry is reported as “showed anti-androgenic activity” and the “effective dose versus toxic dose” value is given as “the effective dose was very close to the toxic dose”.

With `CO/N=C(/c1ccc(F)cc1)c1cnccn1` [Compound 7, 4-fluorophenyl pyrazinyl ketone, O-methyl oxime], the inhibition in vivo at 100 mg/kg in data set [1] came to 96%; in data set [2] (setting [6]), 72%.

Consider `CN(C)CCON=C(Cc1ccccn1)c1ccccc1` [phenyl 2-picolinyl ketone, O-dimethylaminoethyl oxime], for which, in data set [3], the anti-androgenic activity entry is listed as “showed anti-androgenic activity” and the “effective dose versus toxic dose” value is given as “the effective dose was very close to the toxic dose”.

As for `CN(C)CCCON=C(c1ccccc1)c1ncc[nH]1` [Compound 31, 2-imidazolyl phenyl ketone, O-3-N,N-dimethylaminopropyl oxime], the values for the inhibition in vivo at 100 mg/kg in data set [1], in data set [2] (setting [6]) and in data set [2] (setting [7]) were 56%, 80% and 72%, respectively.

Consider `CN(C)CCCON=C(c1ccccc1)c1ccc2ccccc2n1` [Compound 30, phenyl 2-quinolinyl ketone, O-3-N,N-dimethylaminopropyl oxime.1 fumaric acid], for which the inhibition in vivo at 100 mg/kg turned out to be 79% in data set [1], 72% in data set [2] (setting [6]) and 37% in data set [2] (setting [7]).

With `CO/N=C(/c1ccccc1)c1ncc[nH]1` [Compound 18, 2-imidazolyl phenyl ketone, O-methyl oxime], the inhibition in vivo at 100 mg/kg was 91% in data set [1] and 87% in data set [2] (setting [6]).

Regarding `CON=C(c1ccccc1)c1nc2ccccc2[nH]1` [Compound 20, 2-benzimidazolyl phenyl ketone, O-methyl oxime], the inhibition in vivo at 100 mg/kg in data set [1] stood at 78%.

`CO/N=C(\c1ccccc1)c1cn2ccccc2n1` [Compound 10, 2-imidazo[1,2-a]pyridinyl phenyl ketone, O-methyl oxime]: the inhibition in vivo at 50 mg/kg in data set [4] is 89%. Besides, the inhibition in vivo at 100 mg/kg was 66% in data set [2] (setting [6]) and 23% in data set [2] (setting [7]).

`CO/N=C(/c1ccccc1)c1nccs1` [Compound 22, phenyl 2-thiazolyl ketone, O-methyl oxime.HBr]: the results for the inhibition in vivo at 100 mg/kg in data set [1] and in data set [2] (setting [6]) were 78% and 68%, respectively.

For the molecule `CN(C)CCCON=C(c1ccccc1)c1nc2ccccc2s1` [Compound 33, 2-benzothiazolyl phenyl ketone, O-3-N,N-dimethylaminopropyl oxime.1 fumaric acid], the inhibition in vivo at 100 mg/kg in data set [1] came to 62%; in data set [2] (setting [6]), 55%; in data set [2] (setting [7]), 38%.

For `CON=C(c1ccccc1)c1c(C)cc2ccccn12` [Compound 9, 2-methyl-3-indolizinyl phenyl ketone, O-methyl oxime], the inhibition in vivo at 100 mg/kg was 83% in data set [2] (setting [6]) and 52% in data set [2] (setting [7]).

Consider `CN(C)CCCO/N=C(\c1ccccc1)c1nccs1` [Compound 34, phenyl 2-thiazolyl ketone, O-3-N,N-dimethylaminopropyl oxime.1 fumaric acid], for which the inhibition in vivo at 100 mg/kg came out at 82% in data set [2] (setting [6]) and 42% in data set [2] (setting [7]).

The molecule `CO/N=C(/c1ccccc1)c1cn2ccccc2n1` [Compound 11, 2-imidazo[1,2-a]pyridinyl phenyl ketone, O-methyl oxime] displayed an inhibition in vivo at 50 mg/kg in data set [4] of 67%. Besides, in data set [2] (setting [6]), the inhibition in vivo at 100 mg/kg came out at 77%.

Take `C[N+](C)(C)CCON=C(c1ccccc1)c1ccccn1` [phenyl 2-pyridinyl ketone, O-dimethylaminoethyl oxime methiodide]: the acetylcholine antagonistic activity result in data set [5] is on record as “showed acetylcholine antagonistic activity”.

As to `CO/N=C(\c1ccccc1)c1cnc2ccccn12` [Compound 12, 3-imidazo[1,2-a]pyridinyl phenyl ketone, O-methyl oxime], the inhibition in vivo at 100 mg/kg was determined as 61% in data set [1], 55% in data set [2] (setting [6]) and 25% in data set [2] (setting [7]).

Molecule `CN(C)CCCON=C(c1ccccc1)c1cnc2ccccn12` [Compound 29, 3-imidazo[1,2-a]pyridinyl phenyl ketone, O-3-N,N-dimethylaminopropyl oxime.1/2 fumaric acid] returned an inhibition in vivo at 100 mg/kg in data set [1] of 75%.

For the molecule `CN(C)CCON=C(c1ccccc1)c1cnccn1` [Compound 28, phenyl pyrazinyl ketone, O-2,N,N-dimethylaminoethyl oxime.1 maleic acid], the inhibition in vivo at 100 mg/kg came out at 56% in data set [2] (setting [6]) and 59% in data set [2] (setting [7]).

`CO/N=C(\c1ccccc1)c1ncc[nH]1` [Compound 17, 2-imidazolyl phenyl ketone, O-methyl oxime]: the inhibition in vivo at 100 mg/kg in data set [1] was 100%; in data set [2] (setting [6]), 55%; in data set [2] (setting [7]), 26%.

`COc1ccc(C(=NOCCN(C)C)c2cccs2)cc1` [4-methoxyphenyl 2-thienyl ketone, O-dimethylaminoethyl oxime]: the “effective dose versus toxic dose” value in data set [3] is reported as “the effective dose was very close to the toxic dose”.

Regarding `CN(C)CCCON=C(c1ccccc1)c1nccn1C` [Compound 32, 1-methyl-2-imidazolyl phenyl ketone, O-3-N,N-dimethylaminopropyl oxime], the inhibition in vivo at 100 mg/kg in data set [2] (setting [6]) turned out to be 83%; in data set [2] (setting [7]) it was 41%.

Take `CO/N=C(/c1ccc(Cl)cc1)c1cnccn1` [Compound 2, 4-chlorophenyl pyrazinyl ketone, O-methyl oxime]: the inhibition in vivo at 100 mg/kg was 68% in data set [1], 68% in data set [2] (setting [6]) and 21% in data set [2] (setting [7]).

Regarding `CON=C(c1ccccc1)c1c(C)nc2ccccn12` [Compound 14, 2-methyl-3-imidazo[1,2-a]pyridinyl phenyl ketone, O-methyl oxime.HCl], the inhibition in vivo at 100 mg/kg in data set [1] came to 78%; in data set [2] (setting [6]), 59%; in data set [2] (setting [7]) it was 23%.

`CN(C)CCCON=C(c1ccccc1)c1cnccn1` [Compound 27, phenyl pyrazinyl ketone, O-3-N,N-dimethylaminopropyl oxime.1 maleic acid]: the inhibition in vivo at 100 mg/kg was 92% in data set [1], 67% in data set [2] (setting [6]) and 49% in data set [2] (setting [7]).

In turn, `N#CCON=C(c1ccccc1)c1cnccn1` [Compound 24, Phenyl pyrazinyl ketone, O-cyanomethyl oxime] gave an inhibition in vivo at 100 mg/kg in data set [1] of 93%.

Regarding `CON=C(c1ccccc1)c1nccn1C` [Compound 19, 1-methyl-2-imidazolyl phenyl ketone, O-methyl oxime], the inhibition in vivo at 100 mg/kg is 91% in data set [1], 69% in data set [2] (setting [6]) and 49% in data set [2] (setting [7]).

Regarding `C#CCON=C(c1ccccc1)c1cnccn1` [Compound 26, phenyl pyrazinyl ketone, O-propargyl oxime], the inhibition in vivo at 100 mg/kg in data set [1] is 53%.

On to `CO/N=C(\c1ccccc1)c1nccs1` [Compound 21, phenyl 2-thiazolyl ketone, O-methyl oxime], for which the inhibition in vivo at 100 mg/kg in data set [1] turned out to be 89%; in data set [2] (setting [6]), 57%.

For the molecule `CO/N=C(\c1ccc(F)cc1)c1cnccn1` [Compound 8, 4-fluorophenyl pyrazinyl ketone, O-methyl oxime], the inhibition in vivo at 100 mg/kg in data set [1] came to 96%; in data set [2] (setting [6]), 72%.

Regarding `CON=C(c1cnccn1)c1ccco1` [Compound 23, 2-furanyl pyrazinyl ketone, O-methyl oxime], the inhibition in vivo at 100 mg/kg in data set [1] was 98%; in data set [2] (setting [6]), 67%.

Turning to `CO/N=C(/c1ccccc1)c1cnccn1` [Compound 1, Phenyl pyrazinyl ketone, O-methyl oxime], in data set [4], the inhibition in vivo at 50 mg/kg amounted to 74%. The figures for the inhibition in vivo at 100 mg/kg in data set [2] (setting [6]) and in data set [2] (setting [7]) were 77% and 23%, respectively.
